Data published in PubChem BioAssay (NCI).
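Step 1: Grow cells in 96-well plates. Step 2: Expose to compound for 48 hours at 5 concentrations. Step 3: Interpolate endpoints linearly; if unreached, use highest concentration. TGI denotes the concentration required for complete inhibition of growth.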 Where a SMILES comes first, the peptide text is derived from it. The star is where a group is joined. Cbz = O=C(OCc1ccccc1)*

What follows are molecules tested on ACHN renal (assay: inhibition of tumour cell growth, NCI panel, 48 h).
For `COc1cc(NS(C)(=O)=O)ccc1Nc1c2ccccc2nc2c1[nH]c1ccc(NC3OC(CO)C(O)C(O)C3O)cc12` (stereo not drawn), the TGI was 0.137 µM.
For `O=C(O)CCC(NC(=O)OCc1ccccc1)C(=O)NC(Cc1cnc[nH]1)C(=O)O` (stereo not drawn) (Cbz-Glu-His-OH; configuration not given here), the TGI was > 100 µM.
For `O=[N+]([O-])/C(C(Cl)=C(Cl)Cl)=C(/Cl)Sc1ccccc1`, the TGI was 3.93 µM.
With `Clc1ccc(C2C3COc4ccccc4C3=NN2c2ccccc2)cc1` (stereo not drawn) the TGI was > 100 µM.
In the case of `COC(=O)C1=C(O)C(C(=O)OC)[C@]2(O)[C@H](C(=O)OC)[C@H]1C[C@@H](c1ccc(C(F)(F)F)cc1)[C@H]2C(=O)OC` (stereo partly drawn), the TGI is reported as > 100 µM.
In the case of `CCOC(=O)C12OC(CCC1=O)C(C(=O)OC)=C2C(=O)OC` (stereo not drawn), the TGI is reported as > 10 µM.
With `CCOC(=O)NC(Nc1ccc(S(=O)(=O)Nc2nc(C)cc(C)n2)cc1)(C(=O)OCC)C(F)(F)F` (stereo not drawn) the TGI was > 100 µM.
`COc1ccc(C(OCC2OC(n3cc(C)c(=O)[nH]c3=O)CC2n2cc(Cn3cc(Cl)c(=O)[nH]c3=O)nn2)(c2ccccc2)c2ccccc2)cc1` (stereo not drawn) was tested, and the TGI was > 100 µM.
With `CC(=O)c1[nH]c(NCc2ccccc2)c(C(=S)Nc2ccccc2)c1N` the TGI was 85.2 µM.
In the case of `CN1CCN(C(=S)N2CCN(C)CC2)CC1`, the TGI is reported as > 100 µM.
With `O=Cc1[nH]c(=O)[nH]c(=O)c1C(=O)O` the TGI was > 100 µM.
`Nc1nc(SC/C=C/c2ccccc2)c2[nH]cnc2n1` was tested, and the TGI was > 100 µM.
For `CSc1nc(Nc2cccc(C(F)(F)F)c2)c2c(N)nn(C)c2n1`, the TGI was > 100 µM.
With `CCCCNC(=S)Nc1nc(C(=O)NNC(=S)Nc2ccccc2)cs1` the TGI was > 100 µM.
For `CC1CCC(=O)C(C(=O)CC2CC(=O)N(C)C(=O)C2)C1` (stereo not drawn), the TGI was > 100 µM.
`COc1cc2c(C)cc(O)cc2c2cc(O)c(C)cc12` was tested, and the TGI was 22.6 µM.
For `COc1ccc(-[n+]2nc(S(=O)(=O)O)c(/C=C/c3ccc(N(C)C)cc3)cc2C#N)cc1`, the TGI was > 100 µM.
For `C/C=C(/C)C(=O)O[C@@H]1CCN2CC[C@H](COC(=O)/C(=C/C)CO)C12` (stereo partly drawn), the TGI was > 100 µM.

What follows are molecules tested on CAKI-1 renal (assay: inhibition of tumour cell growth, NCI panel, 48 h).
With `COc1cc(NS(C)(=O)=O)ccc1Nc1c2ccccc2nc2c1[nH]c1ccc(NC3OC(CO)C(O)C(O)C3O)cc12` (stereo not drawn) the TGI was 0.091 µM.
For `O=C(O)CCC(NC(=O)OCc1ccccc1)C(=O)NC(Cc1cnc[nH]1)C(=O)O` (stereo not drawn) (Cbz-Glu-His-OH; configuration not given here), the TGI was > 100 µM.
For `O=[N+]([O-])/C(C(Cl)=C(Cl)Cl)=C(/Cl)Sc1ccccc1`, the TGI was 6.57 µM.
In the case of `Clc1ccc(C2C3COc4ccccc4C3=NN2c2ccccc2)cc1` (stereo not drawn), the TGI is reported as > 100 µM.
For `COC(=O)C1=C(O)C(C(=O)OC)[C@]2(O)[C@H](C(=O)OC)[C@H]1C[C@@H](c1ccc(C(F)(F)F)cc1)[C@H]2C(=O)OC` (stereo partly drawn), the TGI was > 100 µM.
For `CCOC(=O)C12OC(CCC1=O)C(C(=O)OC)=C2C(=O)OC` (stereo not drawn), the TGI was > 10 µM.
In the case of `CCOC(=O)NC(Nc1ccc(S(=O)(=O)Nc2nc(C)cc(C)n2)cc1)(C(=O)OCC)C(F)(F)F` (stereo not drawn), the TGI is reported as > 100 µM.
`COc1ccc(C(OCC2OC(n3cc(C)c(=O)[nH]c3=O)CC2n2cc(Cn3cc(Cl)c(=O)[nH]c3=O)nn2)(c2ccccc2)c2ccccc2)cc1` (stereo not drawn) was tested, and the TGI was > 100 µM.
`CC(=O)c1[nH]c(NCc2ccccc2)c(C(=S)Nc2ccccc2)c1N` gave a TGI of 98.2 µM.
With `CN1CCN(C(=S)N2CCN(C)CC2)CC1` the TGI was > 100 µM.
`O=Cc1[nH]c(=O)[nH]c(=O)c1C(=O)O` was tested, and the TGI was > 100 µM.
In the case of `Nc1nc(SC/C=C/c2ccccc2)c2[nH]cnc2n1`, the TGI is reported as > 100 µM.
`CSc1nc(Nc2cccc(C(F)(F)F)c2)c2c(N)nn(C)c2n1` was tested, and the TGI was > 100 µM.
`CCCCNC(=S)Nc1nc(C(=O)NNC(=S)Nc2ccccc2)cs1` was tested, and the TGI was > 100 µM.
In the case of `CC1CCC(=O)C(C(=O)CC2CC(=O)N(C)C(=O)C2)C1` (stereo not drawn), the TGI is reported as > 100 µM.
Work on `COc1cc2c(C)cc(O)cc2c2cc(O)c(C)cc12` yielded a TGI of 22.4 µM.
`COc1ccc(-[n+]2nc(S(=O)(=O)O)c(/C=C/c3ccc(N(C)C)cc3)cc2C#N)cc1` was tested, and the TGI was > 100 µM.
In the case of `C/C=C(/C)C(=O)O[C@@H]1CCN2CC[C@H](COC(=O)/C(=C/C)CO)C12` (stereo partly drawn), the TGI is reported as > 100 µM.

These molecules were tested on COLO 205 colon (assay: inhibition of tumour cell growth, NCI panel, 48 h).
In the case of `COc1cc(NS(C)(=O)=O)ccc1Nc1c2ccccc2nc2c1[nH]c1ccc(NC3OC(CO)C(O)C(O)C3O)cc12` (stereo not drawn), the TGI is reported as 2.76 µM.
For `O=C(O)CCC(NC(=O)OCc1ccccc1)C(=O)NC(Cc1cnc[nH]1)C(=O)O` (stereo not drawn) (Cbz-Glu-His-OH; configuration not given here), the TGI was > 100 µM.
`O=[N+]([O-])/C(C(Cl)=C(Cl)Cl)=C(/Cl)Sc1ccccc1` showed a TGI of 2.75 µM.
`Clc1ccc(C2C3COc4ccccc4C3=NN2c2ccccc2)cc1` (stereo not drawn) was tested, and the TGI was > 100 µM.
Molecule `COC(=O)C1=C(O)C(C(=O)OC)[C@]2(O)[C@H](C(=O)OC)[C@H]1C[C@@H](c1ccc(C(F)(F)F)cc1)[C@H]2C(=O)OC` (stereo partly drawn) has a TGI of 11.5 µM.
For `CCOC(=O)C12OC(CCC1=O)C(C(=O)OC)=C2C(=O)OC` (stereo not drawn), the TGI was > 10 µM.
In the case of `CCOC(=O)NC(Nc1ccc(S(=O)(=O)Nc2nc(C)cc(C)n2)cc1)(C(=O)OCC)C(F)(F)F` (stereo not drawn), the TGI is reported as > 100 µM.
With `COc1ccc(C(OCC2OC(n3cc(C)c(=O)[nH]c3=O)CC2n2cc(Cn3cc(Cl)c(=O)[nH]c3=O)nn2)(c2ccccc2)c2ccccc2)cc1` (stereo not drawn) the TGI was > 100 µM.
In the case of `CC(=O)c1[nH]c(NCc2ccccc2)c(C(=S)Nc2ccccc2)c1N`, the TGI is reported as > 100 µM.
`CN1CCN(C(=S)N2CCN(C)CC2)CC1` was tested, and the TGI was 9.45 µM.
With `O=Cc1[nH]c(=O)[nH]c(=O)c1C(=O)O` the TGI was > 100 µM.
`Nc1nc(SC/C=C/c2ccccc2)c2[nH]cnc2n1` was tested, and the TGI was > 100 µM.
For `CSc1nc(Nc2cccc(C(F)(F)F)c2)c2c(N)nn(C)c2n1`, the TGI was > 100 µM.
With `CCCCNC(=S)Nc1nc(C(=O)NNC(=S)Nc2ccccc2)cs1` the TGI was > 100 µM.
`CC1CCC(=O)C(C(=O)CC2CC(=O)N(C)C(=O)C2)C1` (stereo not drawn) was tested, and the TGI was > 100 µM.
Molecule `COc1cc2c(C)cc(O)cc2c2cc(O)c(C)cc12` has a TGI of 19.6 µM.
For `COc1ccc(-[n+]2nc(S(=O)(=O)O)c(/C=C/c3ccc(N(C)C)cc3)cc2C#N)cc1`, the TGI was > 100 µM.
Work on `C/C=C(/C)C(=O)O[C@@H]1CCN2CC[C@H](COC(=O)/C(=C/C)CO)C12` (stereo partly drawn) yielded a TGI of 42.7 µM.

Each molecule was assayed on HCC-2998 colon (assay: inhibition of tumour cell growth, NCI panel, 48 h).
Molecule `COc1cc(NS(C)(=O)=O)ccc1Nc1c2ccccc2nc2c1[nH]c1ccc(NC3OC(CO)C(O)C(O)C3O)cc12` (stereo not drawn) has a TGI of 0.809 µM.
`O=C(O)CCC(NC(=O)OCc1ccccc1)C(=O)NC(Cc1cnc[nH]1)C(=O)O` (stereo not drawn) (Cbz-Glu-His-OH; configuration not given here) was tested, and the TGI was > 100 µM.
`O=[N+]([O-])/C(C(Cl)=C(Cl)Cl)=C(/Cl)Sc1ccccc1` showed a TGI of 5.7 µM.
For `Clc1ccc(C2C3COc4ccccc4C3=NN2c2ccccc2)cc1` (stereo not drawn), the TGI was > 100 µM.
With `COC(=O)C1=C(O)C(C(=O)OC)[C@]2(O)[C@H](C(=O)OC)[C@H]1C[C@@H](c1ccc(C(F)(F)F)cc1)[C@H]2C(=O)OC` (stereo partly drawn) the TGI was 14.7 µM.
With `CCOC(=O)C12OC(CCC1=O)C(C(=O)OC)=C2C(=O)OC` (stereo not drawn) the TGI was > 10 µM.
For `CCOC(=O)NC(Nc1ccc(S(=O)(=O)Nc2nc(C)cc(C)n2)cc1)(C(=O)OCC)C(F)(F)F` (stereo not drawn), the TGI was > 100 µM.
In the case of `COc1ccc(C(OCC2OC(n3cc(C)c(=O)[nH]c3=O)CC2n2cc(Cn3cc(Cl)c(=O)[nH]c3=O)nn2)(c2ccccc2)c2ccccc2)cc1` (stereo not drawn), the TGI is reported as > 100 µM.
Work on `CC(=O)c1[nH]c(NCc2ccccc2)c(C(=S)Nc2ccccc2)c1N` yielded a TGI of 40.6 µM.
